Patent US10760087B2, “Compositions, methods, and plant genes for the improved production of fermentable sugars for biofuel production” (priority 2012, dated 2020)
Read-outs that look alike come from different tables or passages of the source.

Experiments:
Format in all cases: in vivo
[1] = system: wild type Arabidopsis seedlings; experiment: Sugar release by 0.2 M H2SO4 acid hydrolysis of NPA-treated Arabidopsis seedlings; settings: wild type (Col-0) 28 day-old seedlings on MS media with 1 or 5 μM NPA
Source text: FIGS. 4A-4D illustrate the analysis of pin-shaped inflorescence mutants and NPA treatment, resulting in increased saccharification in Arabidopsis and maize. […] (Results are averages ±s.d. (n=4). *, P<0.001 and **, P<0.005 using Student's t-test; all experiments were repeated two times with similar results.)
(§1) The connection between auxin transport and increased sugar release was further probed using a specific inhibitor of auxin transport N-1-naphthylphthalamic acid (NPA). […] More importantly, the ability to chemically perturb auxin transport allowed the expansion of the analysis to Zea mays (maize). […] Moreover, it appears that genes and processes identified using Arabidopsis can be transferred to maize and potentially other monocot species dedicated to biofuel production.
The M2 generation of EMS-mutagenized Arabidopsis (Col-0) seeds were chilled for 4 days and sowed onto 0.5× MS plates placed vertically under continuous light conditions at room temperature. […] The samples were incubated at 100° C. for 5 minutes, cooled and the absorbance was read at 660 nm. Approximately 22,000 seedlings from 32 pools were screened from which 63 wall hydrolysis sensitive (whs) mutants were identified as having an absorbance reading greater than 2 standard deviations from wild type (FIG. 5). whs mutants were retested in the M3 generation.

Zea mays (maize) = experiment: Sugar release by 0.2 M H2SO4 acid hydrolysis of NPA-treated maize; settings: two maize cultivars, 120 μM NPA for 2 weeks
Source text: (Results are averages ±s.d. (n=6-9).)
as §1
Polar auxin transport inhibition was carried out as described by Wu & McSteen, 2007. The two maize cultivars, Syngenta hybrid N39-Q1 and Tuxedo Sweet Corn, were grown in a greenhouse at 24° C. with a 12 hour day/night cycle. The plants were grown four weeks before NPA treatment followed by a two week watering regime using 120 μM NPA (ChemService, West Chester, Pa., USA) or DMSO alone (solvent) applied every two days in a volume of 150 mL for each pot. Plants were fertilized once a week with 20-20-20 fertilizer. After 2 weeks of treatment, whole plants were collected and de-stained in chloroform:methanol (1:1 v/v). Acid hydrolysis was performed as described previously.

[2] = system: Arabidopsis wild-type and CesA1/CesA3/CesA6 mutant alleles; experiment: Root length of Arabidopsis wild-type and CESA mutant lines on cellulose biosynthetic inhibitors (CBI resistance); settings: Arabidopsis thaliana
Method: Further genetic screens aimed at identifying resistance to cellulose biosynthetic inhibitors (CBIs) were also conducted. The aim of conducting resistance screens can be to identify potential inhibitor targets. In the case of some CBIs, like isoxaben, resistance screens have been carried out using high concentrations of the inhibitor with the aim of identifying the target protein. Indeed, high resistance to isoxaben is only possible if certain CELLULOSE SYNTHASE (CESA) genes are altered by mutation. An unforeseen consequence of some of the resistance alleles has been to reduce overall cellulose crystallinity, which ultimately leads to overall improved saccharification of starting cell wall material. With this information as a starting point, the inventors sought to identify novel CESA alleles by conducting additional resistance screens, but utilizing much lower CBI concentrations than in the original screens.
EMS mutagenized plants (M2) were screened on 20 nM of two different CBIs, isoxaben or flupoxam. […] In total, 2 million M2 seeds were screened and 12 new CESA alleles were isolated, 3 in CESA1, 8 in CESA3 and 1 in CESA6. All of the new mutant alleles led to single amino acid substitutions, which could not have been predicted a priori.

O=C(O)c1ccccc1C(=O)Nc1cccc2ccccc12 [NPA, N-1-naphthylphthalamic acid]
increase in the release of sugars relative to untreated plants [1]: 1.5 to 2 fold | cell wall accessibility (sugar release) (Zea mays (maize)): significant increase in cell wall accessibility

CCC(C)(CC)c1cc(NC(=O)c2c(OC)cccc2OC)on1 [Isoxaben, isoxaben]
IC50 ([2]; read-out: Concentration at which root length is 50% of wt, allele ixr1-1 (published), Col-0, CesA3 G(998)D): > 1000 nM | IC50 ([2]; read-out: Concentration at which root length is 50% of wt, allele ixr1-2 (published), Col-0, CesA3 T(942)I): 500 nM | IC50 ([2]; read-out: Concentration at which root length is 50% of wt, allele ixr1-3, Ler, CesA3 G(998)S): 100 nM | IC50 ([2]; read-out: Concentration at which root length is 50% of wt, allele ixr1-4, Ler, CesA3 R(806)K): 50 nM | IC50 ([2]; read-out: Concentration at which root length is 50% of wt, allele ixr1-5, Ler, CesA3 L(797)F): 10 nM | IC50 ([2]; read-out: Concentration at which root length is 50% of wt, allele ixr1-6, Ler, CesA3 S(377)F): 50 nM | IC50 ([2]; read-out: Concentration at which root length is 50% of wt, allele ixr1-7, Ler, CesA3 R(276)H): 50 nM | IC50 ([2]; read-out: Concentration at which root length is 50% of wt, allele ixr 2-1 (published), Col-0, CesA6 R(1064)W): 50 nM | IC50 ([2]; read-out: Concentration at which root length is 50% of wt, allele ixr 2-2, Ler, CesA6 S(1002)F): 10 nM

NC(=O)c1nc(-c2ccccc2)n(-c2ccc(Cl)c(COCC(F)(F)C(F)(F)F)c2)n1 [Flupoxam, flupoxam]
IC50 ([2]; read-out: Concentration at which root length is 50% of wt, allele fpx 1-1, Col-o, CesA3 S(1040)L): 500 nM | IC50 ([2]; read-out: Concentration at which root length is 50% of wt, allele fpx 1-2, Ler, CesA3 S(1037)F): > 1000 nM | IC50 ([2]; read-out: Concentration at which root length is 50% of wt, allele fpx 1-3, Ler, CesA3 S(983)F): 100 nM | IC50 ([2]; read-out: Concentration at which root length is 50% of wt, allele fpx2-1, Ler, CesA1 G(1013)R): > 1000 nM | IC50 ([2]; read-out: Concentration at which root length is 50% of wt, allele fpx 2-2, Ler, CesA1 P(1010)L): 100 to 500 nM | IC50 ([2]; read-out: Concentration at which root length is 50% of wt, allele fpx 2-3, Ler, CesA1 G(1009)D): 1000 nM
